Assay [1] addresses T1, DcpS (Homo sapiens, UniProt Q96C86).
T1 construct: His tag; made in house; host or cells: E. coli BL21(DE3) RIL
T1 sequence (Q96C86 1-337): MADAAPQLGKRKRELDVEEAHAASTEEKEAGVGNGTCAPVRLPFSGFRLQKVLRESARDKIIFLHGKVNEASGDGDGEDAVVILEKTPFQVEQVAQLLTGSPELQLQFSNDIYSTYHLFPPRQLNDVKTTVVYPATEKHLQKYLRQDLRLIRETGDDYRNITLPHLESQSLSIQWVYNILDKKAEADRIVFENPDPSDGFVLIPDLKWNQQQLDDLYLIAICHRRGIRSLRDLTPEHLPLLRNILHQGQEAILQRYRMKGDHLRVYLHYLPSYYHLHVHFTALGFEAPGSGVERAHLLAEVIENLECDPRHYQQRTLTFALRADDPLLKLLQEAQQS
Briefly: FA competition assay for DcpS. The format is binding. How it is done: Expression of recombinant His-tagged human DcpS was performed in BL21(DE3) RIL strain and induced overnight at 18 °C using 0.5 mM IPTG as described previously. Cells were harvested, resuspended in buffer (50 mM Tris pH 7.6, 500 mM NaCl, 20 mM imidazole) with lysozyme (0.1 mg/ml) and protease inhibitors (1 mM PMSF, 1 µM pepstatin A, 0.3 µM aprotinin) and then lysed using sonication. Lysate was clarified by centrifugation at 35 000 × g for 40 min at 4 °C. […] The enzyme hDcpS was purified to homogeneity on HiLoad 16/600 Superdex 200 pg (GE Healthcare) gel filtration column using 50 mM Tris·HCl pH 7.6, 200 mM NaCl, 2 mM DTT buffer. Protein was aliquoted and stored in the presence of 10% glycerol at -80 °C.
(§1) Experiments were carried out at 25 °C in 96-well non-binding microplates with sample volume of 200 µl per well. Two different buffers were used depending on protein used in the assay:
DcpS assay buffer—50 mM Tris–HCl (pH 7.6), 200 mM KCl, 0.5 mM EDTA, 1 mM DTT.
(§2) For competitive binding assay, a mixture containing the probe and the protein was incubated with the tested ligand.
(§3) In competitive measurements, a constant concentration of the protein and fluorescent probe and increasing concentration of the test ligand were used. At least 12 point dilutions of the tested compound were used. The experiments were carried out in 96-well plates. Each sample contained a mixture consisting of the probe, tested ligand and buffer (same as for the direct binding assay). The samples were incubated for 10 min at 25 °C with simultaneous shaking, then the protein was added to each well, incubated for additional 3 min, followed by the measurement of fluorescence anisotropy. FA signals were recorded for 20 min with 2 min intervals.

Assay [2] relates to DcpS. Details: method as in PMID 27031609. The following applies: DcpS inhibition, FR assay; cited from earlier work.
Assay [3] has as its target T2, eIF4E (Mus musculus, UniProt P63073).
T2 construct: Murine eIF4E (residues 28–217) was expressed in E. coli; made in house; host or cells: E. coli
In words: FA competition (probe-displacement) assay for eIF4E. It counts as binding, Murine. The following applies: for EC50: HEPES pH 7.2. The method, then:
Inclusion bodies containing eIF4E were solubilized in 50 mM HEPES/KOH (pH 7.2) buffer containing 10% glycerol, 6 M guanidine hydrochloride and 2 mM DTT. Protein was then refolded during a two-step dialysis against buffer with decreasing concentration of guanidine hydrochloride in the presence of 100 mM KCl. Subsequently eIF4E was loaded on ion exchange HiTrap SP HP column (GE Healthcare), eluted with linear gradient of 0.1–1 M KCl and finally desalted and polished during a gel filtration purification step on HiLoad 16/600 Superdex 75 pg (GE Healthcare) using 50 mM HEPES pH 7.2, 100 mM KCl, 0.5 mM EDTA, 2 mM DTT buffer. eIF4E was aliquoted and stored in the presence of 10% glycerol at −80 °C. Before each experiment the protein was centrifuged on Ultrafree-MC Centrifugal PVDF filter with […] pore size (Millipore), at 4 °C and 3000×g for 2 min to remove any possible aggregates.
as §1
eIF4E assay buffer—50 mM HEPES (pH 7.2), 100 mM KCl, 0.5 mM EDTA, 1 mM DTT.
as §2, §3

Assay [4] has as its target T1, DcpS. Briefly: FA screening of in-house library, 2i:DcpS system. The format is binding. Conditions: 1 nM 2i, 25 nM DcpS, 1.5 µM inhibitor. How it is done:
The Z’ factor was determined under conditions optimized for the competition assay. The Z’ value exceeded 0.8 for incubation times up to 1 h, making the assay suitable for screening experiments (Table 5). A screening experiment was then performed using the same compound library as that used for eIF4E screening. The results highlighted the impact of the triphosphate bridge modification on the affinity for the protein. […] The FA method also enabled the identification of unstable compounds, e.g., hydrozylable ligands for which determination of affinity is problematic (as observed by FA signal changes during the experiment; Fig. 7).
To evaluate the quality of the assay, the Z’ factor was determined for several protein-probe combinations. The assay was performed on 96-well microplates, where half of the samples were negative controls and the other half were positive controls.
For the screening experiments a small in-house library containing 21 ligands was used. Experiments were conducted in the same manner as Z’ factor determination, with exception that the ligand concentration was modified (eIF4E screening conditions: 1 nM 1e, 100 nM eIF4E, 750 nM ligand, DcpS screening conditions: 1 nM 2i, 25 nM DcpS, 1.5 µM ligand). For eIF4E screening experiment, the 1e:eIF4E system was used, for DcpS screening 2i:DcpS system was used.

Assay [5] relates to eIF4E. Details: method as in PMID 22316555. Conditions: cited from earlier work.
The next assay has as its target 4G peptide (UniProt Q04637). In words: fluorescence anisotropy. The following applies: cited from earlier work. (Polarisation of emitted light reports the rotation of a fluorescent probe.)
Where [6] appears, read: 1f:DcpS system, 1f and 100 nM DcpS.
[7] abbreviates: 2g:DcpS system, 2 nM 2g and 25 nM DcpS.
[8] abbreviates: 2i:DcpS system, 1 nM 2i and 25 nM DcpS.
[9] abbreviates: 2h:DcpS system, 2 nM 2h and 25 nM DcpS.
Where [10] appears, read: Probe 1a: 10 nM probe 1a and 100 nM eIF4E.
Where [11] appears, read: Probe 1b: 1 nM probe 1b and 15 nM eIF4E.
[12] abbreviates: Probe 1e: footnote c, 1 nM probe 1c and 100 nM eIF4E.

T2 sequence (P63073 28-217): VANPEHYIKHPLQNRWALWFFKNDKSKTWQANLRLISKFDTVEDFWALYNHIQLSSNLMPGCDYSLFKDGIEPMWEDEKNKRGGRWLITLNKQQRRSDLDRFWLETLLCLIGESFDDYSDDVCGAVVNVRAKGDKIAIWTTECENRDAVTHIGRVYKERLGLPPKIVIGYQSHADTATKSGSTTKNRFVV
Chain of eIF4E (from UniProt P06730) (P06730 2-217): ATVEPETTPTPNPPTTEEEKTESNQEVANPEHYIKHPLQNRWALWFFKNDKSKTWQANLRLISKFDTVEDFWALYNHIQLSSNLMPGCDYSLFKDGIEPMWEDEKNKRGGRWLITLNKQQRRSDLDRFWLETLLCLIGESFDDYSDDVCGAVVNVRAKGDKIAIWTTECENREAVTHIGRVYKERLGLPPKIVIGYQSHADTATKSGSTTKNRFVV

As for `Cn1c[n+]([C@@H]2O[C@H](COP(=O)(O)OP(=O)([O-])O)[C@@H](O)[C@H]2O)c2nc(N)[nH]c(=O)c21` [m^7GDP], the EC50 worked out at 36.5 ± 3.6 nM on DcpS [1] (setting [6]); 16.4 ± 0.2 nM on DcpS [1] (setting [7]); 36.2 ± 4.7 nM on DcpS [1] (setting [8]); 31.2 ± 10.7 nM on DcpS [1] (setting [9]); 204 ± 5.5 nM at eIF4E [3] (setting [10]); 212 ± 30 nM on eIF4E [3] (setting [11]). On eIF4E [3] (setting [12]), this molecule came in with an EC50 of 216 ± 11 nM. Also, the Hill slope at DcpS [1] (setting [6]) came out at 1.98 ± 0.18; at DcpS [1] (setting [7]), 1.55 ± 0.09; on DcpS [1] (setting [8]), 1.42 ± 0.06; on DcpS [1] (setting [9]) it was 1.06 ± 0.37; at eIF4E [3] (setting [10]) it was 1.36 ± 0.03; on eIF4E [3] (setting [11]), 1.16 ± 0.04. Moreover, at eIF4E [3] (setting [12]), the Hill slope is given as 1.08 ± 0.07. For the same molecule, in the assay on DcpS [2], the IC50 was 5200 ± 1200 nM.

With `C[n+]1cn([C@@H]2O[C@H](COP(=O)([O-])NP(=O)([O-])OP(=O)([O-])OP(=O)([O-])OC[C@H]3O[C@@H](n4cnc5c(=O)[nH]c(N)nc54)[C@H](O)[C@@H]3O)[C@@H](O)[C@H]2O)c2nc(N)[nH]c(=O)c21.[Na+].[Na+].[Na+]` [m^7GpNHpppG], at DcpS [4], the “inhibitory potency in DcpS screening” value is “strong DcpS inhibitors”. The “association constant KAS” value in the assay with eIF4E [5] is 112.3 ± 1.8 µM⁻¹.

On to `C[n+]1cn([C@@H]2O[C@H](COP(=O)([O-])NP(=O)(O)OP(=O)(O)OC[C@H]3O[C@@H](n4cnc5c(=O)[nH]c(N)nc54)[C@H](O)[C@@H]3O)[C@@H](O)[C@H]2O)c2nc(N)[nH]c(=O)c21.N.N` [m^7GpNHppG], for which the “inhibitory potency in DcpS screening” value on DcpS [4] was “strong DcpS inhibitors”. In addition, the EC50 on DcpS [1] (setting [6]) worked out at 27.8 ± 2.7 nM; on DcpS [1] (setting [7]), 11.6 ± 0.4 nM; on DcpS [1] (setting [8]) it was 17.9 ± 1.3 nM; at DcpS [1] (setting [9]), 18.1 ± 5 nM. Besides, the Hill slope is 2.26 ± 0.16 on DcpS [1] (setting [6]), 1.95 ± 0.07 at DcpS [1] (setting [7]), 1.66 ± 0.10 at DcpS [1] (setting [8]) and 1.23 ± 0.44 on DcpS [1] (setting [9]). The IC50 with DcpS [2] is 3200 ± 900 nM.

In the case of eIF4E (from UniProt P06730), the equilibrium dissociation constant (Kd) with 4G peptide is 25000 nM.

The EC50 is the concentration that produces a half-maximal response. A low value points to greater potency. One may read the Hill slope as the slope factor of the fitted curve. Usually IC50 stands for the concentration at which inhibition is half-maximal. As usually defined, the Kd is the concentration at which binding is half-saturated.

Values taken from PMC8032668, “Evaluation of carboxyfluorescein-labeled 7-methylguanine nucleotides as probes for studying cap-binding proteins by fluorescence anisotropy” (Scientific Reports, 2021).
